Bridge positions count the residues as written; N and C are the ends. Square brackets hold non-standard residues; d marks the D form. Peptide text beside a SMILES is read from it. NMeR = CN[C@@H](CCCNC(=N)N)C(=O)O
Assay: Inhibition of ADP-induced platelet aggregation in canine platelet-rich plasma

IC50 [nM]	SMILES
720	CC(=O)N(C)C(CCCNC(=N)N)C(=O)NCC1=CC(CC(=O)O)C(=O)N(c2ccccc2)CC1 (configuration not stated)
360	CC(=O)N[C@H]1CSSC[C@@H](C(N)=O)NC(=O)[C@H](CC(=O)O)NC(=O)CNC(=O)[C@H](CCCN=C(N)N)N(C)C1=O [SKF-106760] (Ac-C[NMeR]GDC-NH2; disulfide 1-5)
